# Data taken from ChEMBL document CHEMBL5726054, “Substituted bicyclic compounds” (2019).
# Molecular target: Sphingosine 1-phosphate receptor 1 (Homo sapiens) (UniProt P21453)
# Assay: hS1P1 ERK Phosphorylation (S1P1 pERK): hS1P1/CHO cells were plated into BD Amine 384-well plates the day before the assay. On the day of the assay, growth medium was removed and replaced with serum-free medium (Ham's F-12 Invitrogen) and incubated for 2 hours. Test compounds pre-diluted in HBSS (Gibco)/20 mM HEPES (Gibco) were transferred to the cell plates and incubated for 7 minutes at 37° C. …
# Sequence of Sphingosine 1-phosphate receptor 1 (Homo sapiens) (P21453 whole entry, looked up): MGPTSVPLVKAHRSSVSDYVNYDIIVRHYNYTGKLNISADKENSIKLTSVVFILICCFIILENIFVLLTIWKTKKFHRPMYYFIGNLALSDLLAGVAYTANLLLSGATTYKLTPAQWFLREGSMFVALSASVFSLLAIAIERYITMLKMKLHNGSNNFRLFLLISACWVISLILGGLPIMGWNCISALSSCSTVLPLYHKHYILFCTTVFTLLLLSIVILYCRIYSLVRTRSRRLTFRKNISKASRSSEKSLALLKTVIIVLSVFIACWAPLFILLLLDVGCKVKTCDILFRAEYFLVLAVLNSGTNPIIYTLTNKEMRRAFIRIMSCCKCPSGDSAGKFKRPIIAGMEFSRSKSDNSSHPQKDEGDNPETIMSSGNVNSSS
row,EC50,Structure (SMILES)
1,in the range around 55 nM,CCCCCC[C@H]1COc2cc([C@H]3CC[C@](N)(COP(=O)(O)O)C3)ccc2C1
2,in the range around 55 nM,CCCC/C=C/[C@@H]1CCc2cc([C@H]3CC[C@](N)(COP(=O)(O)O)C3)ccc2C1
3,in the range around 55 nM,CCCCCCC1CCc2cc(C3CCC(N)(COP(=O)(O)O)C3)ccc2O1 (stereo not drawn)
